Measurements reported in publication PMC5460289, “Identification of New Shikonin Derivatives as Antitumor Agents Targeting STAT3 SH2 Domain” (Scientific Reports, 2017).

Key:
[1] = MTT anti-proliferation assay, non-tumorigenic cells; format: cell-based; settings: human, non-tumorigenic MCF-10A cells, 24 h treatment
Experimental: (§1) Initial experiments were performed for evaluation of growth inhibition by the new compounds against six human breast cancer cell lines, including MCF-7 (ER+/PR+, HER-2-), BT474 (ER+/PR+, HER-2+), SKBR-3 (ER-/PR-/HER-2+), MDA-MB-436 (ER-/PR-/HER-2-), MDA-MB-231 (ER-/PR-/HER-2-), MDA-MB-468 (ER-/PR-/HER-2-) and non-tumorigenic MCF-10A cells. After 24 h treatment by the obtained compounds, the inhibition was assessed and the IC50 was summarized. […] Subsequently, the inhibition of STAT3 activation by PMM-172 and Stattic was evaluated using a dual-luciferase assay.
(§2) The anti-proliferative activities of the prepared compounds against MCF-7 (ER+/PR+, HER-2-), BT474 (ER+/PR+, HER-2+), SKBR-3 (ER-/PR-/HER-2+), MDA-MB-436 (ER-/PR-/HER-2-), MDA-MB-231 (ER-/PR-/HER-2-), MDA-MB-468 (ER-/PR-/HER-2-) and non-tumorigenic MCF-10A cell lines were evaluated using a standard (MTT)-based colorimetric assay with some modification. Cell lines were grown to log phase in DMEM supplemented with 10% fetal bovine serum. Cell suspensions were prepared and 100 μL/well dispensed into 96-well plates giving 10^4 cells/well. The subsequent incubation was permitted at 37 °C, 5% CO2 atmosphere for 24 h to allow the cells to reattach. Subsequently, cells were treated with the target compounds at increasing concentrations in the presence of 10% FBS for 24 h. Then, cell viability was assessed by the conventional 3-(4, 5-dimethylthiazol-2-yl)-2, 5-diphenyltetrazolium bromide (MTT) reduction assay and carried out strictly according to the manufacturer instructions. The absorbance (OD570) was read on an ELISA reader (Tecan, Austria). In all experiments, three replicate wells were used for each drug concentration. Each assay was carried out for at least three times.

MDA-MB-468 = assay: MTT anti-proliferation assay; format: cell-based, human; settings: Homo sapiens, MDA-MB-468, 24 h treatment
Experimental: as §1, §2

SKBR-3 = assay: MTT anti-proliferation assay; format: cell-based, human; settings: Homo sapiens, SK-BR-3, 24 h treatment
Experimental: as §1, §2

MDA-MB-436 = assay: MTT anti-proliferation assay; format: cell-based, human; settings: Homo sapiens, MDA-MB-436, 24 h treatment
Experimental: as §1, §2

MCF-7 = assay: MTT anti-proliferation assay; format: cell-based, human; settings: Homo sapiens, MCF7, 24 h treatment
Experimental: as §1, §2

BT-474 = assay: MTT anti-proliferation assay; format: cell-based, human; settings: Homo sapiens, BT-474, 24 h treatment
Experimental: as §1, §2

MDA-MB-231 = assay: MTT anti-proliferation assay; format: cell-based, human
Experimental: as §1, §2

[2] = Homo sapiens, MDA-MB-231, 24 h treatment

SMILES | CC50 at 24 h [1] | IC50 (MDA-MB-468) | IC50 (SKBR-3) | IC50 (MDA-MB-436) | IC50 (MCF-7) | IC50 (BT-474) | IC50 (MDA-MB-231; [2]) | IC50 (MDA-MB-231; 24 h treatment) | IC50 (MDA-MB-231; Homo sapiens, MDA-MB-231, 24 h, 24 h treatment)
CC(C)=CC[C@@H](OC(=O)CSc1nnc(-c2ccccc2)o1)C1=CC(=O)c2c(O)ccc(O)c2C1=O [PMM-158, (R)-1-(5,8-dihydroxy-1,4-dioxo-1,4-dihydronaphthalen-2-yl)-4-methylpent-3-en-1-yl 2-((5-phenyl-1,3,4-oxadiazol-2-yl)thio)acetate] | 92.5 ± 0.27 µM | 10.6 ± 0.65 µM | 11.5 ± 0.74 µM | 10.1 ± 0.92 µM | 12.1 ± 0.42 µM | 15.6 ± 1.03 µM | 9.17 ± 0.99 µM |  | 
CC(C)=CC[C@@H](OC(=O)CSc1nnc(-c2ccc(F)cc2)o1)C1=CC(=O)c2c(O)ccc(O)c2C1=O [PMM-159, (R)-1-(5,8-dihydroxy-1,4-dioxo-1,4-dihydronaphthalen-2-yl)-4-methylpent-3-en-1-yl 2-((5-(4-fluorophenyl)-1,3,4-oxadiazol-2-yl)thio)acetate] | 89.5 ± 0.99 µM | 8.23 ± 1.27 µM | 8.95 ± 0.69 µM | 8.49 ± 0.78 µM | 9.22 ± 0.13 µM | 10.8 ± 0.94 µM | 7.24 ± 0.82 µM |  | 
CC(C)=CC[C@@H](OC(=O)CSc1nnc(-c2cccc(F)c2)o1)C1=CC(=O)c2c(O)ccc(O)c2C1=O [PMM-160, (R)-1-(5,8-dihydroxy-1,4-dioxo-1,4-dihydronaphthalen-2-yl)-4-methylpent-3-en-1-yl 2-((5-(3-fluorophenyl)-1,3,4-oxadiazol-2-yl)thio)acetate] | 68.3 ± 0.27 µM | 12.4 ± 0.52 µM | 10.5 ± 0.88 µM | 11.8 ± 0.86 µM | 15.3 ± 0.52 µM | 18.3 ± 1.24 µM | 9.66 ± 1.21 µM |  | 
CC(C)=CC[C@@H](OC(=O)CSc1nnc(-c2ccccc2F)o1)C1=CC(=O)c2c(O)ccc(O)c2C1=O [PMM-161, (R)-1-(5,8-dihydroxy-1,4-dioxo-1,4-dihydronaphthalen-2-yl)-4-methylpent-3-en-1-yl 2-((5-(2-fluorophenyl)-1,3,4-oxadiazol-2-yl)thio)acetate] | 84.5 ± 0.74 µM | 8.97 ± 1.05 µM | 9.29 ± 0.66 µM | 9.55 ± 0.83 µM | 9.81 ± 0.49 µM | 11.1 ± 1.12 µM | 8.58 ± 0.53 µM |  | 
CC(C)=CC[C@@H](OC(=O)CSc1nnc(-c2ccc(Cl)cc2)o1)C1=CC(=O)c2c(O)ccc(O)c2C1=O [PMM-162, (R)-1-(5,8-dihydroxy-1,4-dioxo-1,4-dihydronaphthalen-2-yl)-4-methylpent-3-en-1-yl 2-((5-(4-chlorophenyl)-1,3,4-oxadiazol-2-yl)thio)acetate] | 91.9 ± 1.21 µM | 6.85 ± 0.92 µM | 8.03 ± 0.83 µM | 7.28 ± 0.77 µM | 9.01 ± 0.92 µM | 9.54 ± 0.91 µM | 6.14 ± 1.05 µM |  | 
CC(C)=CC[C@@H](OC(=O)CSc1nnc(-c2cccc(Cl)c2)o1)C1=CC(=O)c2c(O)ccc(O)c2C1=O [PMM-163, (R)-1-(5,8-dihydroxy-1,4-dioxo-1,4-dihydronaphthalen-2-yl)-4-methylpent-3-en-1-yl 2-((5-(3-chlorophenyl)-1,3,4-oxadiazol-2-yl)thio)acetate] | 86.2 ± 0.33 µM | 7.83 ± 0.55 µM | 7.56 ± 0.72 µM | 7.09 ± 0.63 µM | 8.69 ± 0.83 µM | 9.27 ± 0.86 µM | 6.04 ± 0.59 µM |  | 
CC(C)=CC[C@@H](OC(=O)CSc1nnc(-c2ccccc2Cl)o1)C1=CC(=O)c2c(O)ccc(O)c2C1=O [PMM-164, (R)-1-(5,8-dihydroxy-1,4-dioxo-1,4-dihydronaphthalen-2-yl)-4-methylpent-3-en-1-yl 2-((5-(2-chlorophenyl)-1,3,4-oxadiazol-2-yl)thio)acetate] | 74.6 ± 0.55 µM | 3.94 ± 0.73 µM | 4.49 ± 0.58 µM | 4.41 ± 0.55 µM | 5.71 ± 0.52 µM | 7.09 ± 0.65 µM | 3.76 ± 1.02 µM |  | 
CC(C)=CC[C@@H](OC(=O)CSc1nnc(-c2ccc(Br)cc2)o1)C1=CC(=O)c2c(O)ccc(O)c2C1=O [PMM-165, (R)-1-(5,8-dihydroxy-1,4-dioxo-1,4-dihydronaphthalen-2-yl)-4-methylpent-3-en-1-yl 2-((5-(4-bromophenyl)-1,3,4-oxadiazol-2-yl)thio)acetate] | 83.7 ± 1.28 µM | 6.58 ± 0.15 µM | 6.23 ± 0.73 µM | 5.97 ± 0.67 µM | 9.38 ± 0.66 µM | 9.22 ± 0.98 µM | 5.47 ± 1.01 µM |  | 
CC(C)=CC[C@@H](OC(=O)CSc1nnc(-c2cccc(Br)c2)o1)C1=CC(=O)c2c(O)ccc(O)c2C1=O [PMM-166, (R)-1-(5,8-dihydroxy-1,4-dioxo-1,4-dihydronaphthalen-2-yl)-4-methylpent-3-en-1-yl 2-((5-(3-bromophenyl)-1,3,4-oxadiazol-2-yl)thio)acetate] | 69.9 ± 0.58 µM | 4.07 ± 0.66 µM | 4.87 ± 0.58 µM | 4.66 ± 0.59 µM | 6.41 ± 0.75 µM | 6.91 ± 0.73 µM | 3.64 ± 0.91 µM |  | 
CC(C)=CC[C@@H](OC(=O)CSc1nnc(-c2ccccc2Br)o1)C1=CC(=O)c2c(O)ccc(O)c2C1=O [PMM-167, (R)-1-(5,8-dihydroxy-1,4-dioxo-1,4-dihydronaphthalen-2-yl)-4-methylpent-3-en-1-yl 2-((5-(2-bromophenyl)-1,3,4-oxadiazol-2-yl)thio)acetate] | 72.5 ± 1.53 µM | 12.2 ± 0.42 µM | 9.76 ± 0.95 µM | 10.6 ± 0.82 µM | 15.3 ± 0.61 µM | 13.7 ± 0.92 µM | 9.01 ± 0.56 µM |  | 
COc1cccc(-c2nnc(SCC(=O)O[C@H](CC=C(C)C)C3=CC(=O)c4c(O)ccc(O)c4C3=O)o2)c1 [PMM-169, (R)-1-(5,8-dihydroxy-1,4-dioxo-1,4-dihydronaphthalen-2-yl)-4-methylpent-3-en-1-yl 2-((5-(3-methoxyphenyl)-1,3,4-oxadiazol-2-yl)thio)acetate] | 99.5 ± 0.49 µM | 7.22 ± 1.11 µM | 6.95 ± 0.82 µM | 7.36 ± 0.87 µM | 8.12 ± 0.98 µM | 8.36 ± 0.97 µM | 5.33 ± 0.77 µM |  | 
COc1ccccc1-c1nnc(SCC(=O)O[C@H](CC=C(C)C)C2=CC(=O)c3c(O)ccc(O)c3C2=O)o1 [PMM-170, (R)-1-(5,8-dihydroxy-1,4-dioxo-1,4-dihydronaphthalen-2-yl)-4-methylpent-3-en-1-yl 2-((5-(2-methoxyphenyl)-1,3,4-oxadiazol-2-yl)thio)acetate] | 94.6 ± 0.83 µM | 8.44 ± 0.78 µM | 8.27 ± 0.69 µM | 6.88 ± 0.73 µM | 9.73 ± 1.03 µM | 12.7 ± 1.06 µM | 4.31 ± 0.65 µM |  | 
CC(C)=CC[C@@H](OC(=O)CSc1nnc(-c2ccc(C)cc2)o1)C1=CC(=O)c2c(O)ccc(O)c2C1=O [PMM-173, (R)-1-(5,8-dihydroxy-1,4-dioxo-1,4-dihydronaphthalen-2-yl)-4-methylpent-3-en-1-yl 2-((5-(p-tolyl)-1,3,4-oxadiazol-2-yl)thio)acetate] | 88.9 ± 0.34 µM | 3.76 ± 0.88 µM | 3.59 ± 0.49 µM | 4.06 ± 0.53 µM | 5.58 ± 0.83 µM | 6.03 ± 0.71 µM | 2.59 ± 0.19 µM |  | 
CC(C)=CC[C@@H](O)C1=CC(=O)c2c(O)ccc(O)c2C1=O [Shikonin, shikonin] | 23.5 ± 1.01 µM | 3.61 ± 0.34 µM | 3.75 ± 0.52 µM | 3.28 ± 0.41 µM | 4.57 ± 0.69 µM | 5.74 ± 0.66 µM |  | 2.88 ± 0.25 µM | 3.28 ± 0.41 µM
